This note sets out measurements from patent US8580776B2, “Compositions and methods for treating neurodegenerating diseases” (The Board of Trustees of the University of Illinois, priority 2007, dated 2013).

For test [1], the system named is tyrosine hydroxylase (TH). The test is described as follows: QPCR of tyrosine hydroxylase mRNA in DSP4-treated rats. Type of test: in vivo, rat. The procedure: In this experiment, the effects of DSP4 on tyrosine hydroxylase (TH) and IkBα expression were analyzed. Adult rat Sprague Dawley rats were treated with the selective neurotoxin DSP4 to lesion locus ceruleus (LC) noradrenergic neurons and deplete cortical NA levels as described in Example 1.
RNA samples from control or DSP4-treated rats (n=4 each) were converted to cDNA and analyzed by QPCR for relative levels of tyrosine hydroxylase (TH) (FIG. 6A) in the locus ceruleus (LC).
Total cytoplasmic RNA from tissues was prepared from cells using TRIZOL reagent according to manufacturer procedures (Invitrogen/GIBCO); aliquots were converted to cDNA using random hexamer primers, and mRNA levels were estimated by quantitative touchdown PCR (QPCR). Conditions were 35 cycles of denaturation at 94° C. for 10 s; annealing at 58-64° C. for 15 s; and extension at 72° C. for 20 s on a Corbett Rotorgene Real-Time PCR unit (Corbett, Australia). The PCR mastermix contained SYBR Green (1 μl diluted 1:10,000 SybrGreen I 10,000× concentrate, Molecular Probes, Eugene, Oreg.). Relative mRNA concentrations were calculated from the takeoff point of reactions using manufacturer's software. Melting curve analysis and agarose gel electrophoresis were performed to ensure production of single and corrected size products. Relative mRNA values were normalized to housekeeping genes, either α-Tubulin (α-Tub), β-Actin (βAct) or glyceraldehyde-3-phosphate dehydrogenase (GDH). The primers used for QPCR (all listed 5′ to 3′) were: […]
After acclimation (7-10 days), rats received two intraperitoneal injections (one week apart) of either N-(2-chloroethyl)-N-ethyl-2 bromobenzylamine (DSP4, 5 mg/kg) dissolved in PBS or PBS alone (FIG. 6A). Four weeks after the second treatment, the animals were anesthetized with pentobarbital (50 mg/kg i.p.), and placed in a stereotaxic frame (Stoelting, USA) on a heating blanket. Body temperature was maintained at 37±0.5° C. for the time of surgery. […]

Another test relates to LC noradrenergic neurons. The test is described as follows: Lesion of the locus coeruleus with DSP4 in H6 mice. Format: in vivo. The following applies: DSP4 5 mg per kg i.p. every two weeks, H6 mice from age 3-4 months, sacrificed at 9 months. The procedure: Hemizygous male H6 mice (aged 3 to 4 months) were injected with vehicle or with DSP4 (5 mg per kg; i.p., every two weeks) and all mice were sacrificed at age 9 months. This protocol (a low, chronic dose) results in 70% loss of LC noradrenergic neurons. Brains were dissected, the left hemispheres were fast frozen in isopentane at −30° C. and stored at −80° C. for subsequent protein and RNA studies. The right hemispheres were processed for immunohistochemistry.
A chronic treatment paradigm was chosen using a relatively low dose (5 mg/kg) which may better reproduce the slow onset of NA dysfunction that is seen with aging in humans, and a gradual rather than abrupt loss of LC neurons.

A further test relates to neprilysin (NEP). Kind of test: QPCR of neprilysin mRNA in brain samples. Type of test: in vivo, mice. The following applies: cortical samples, versus vehicle. The method, then:
Total cytoplasmic RNA from tissues was isolated using TRIZOL reagent, (Invitrogen/GIBCO); aliquots were converted to cDNA using random hexamer primers, and mRNA levels were estimated by quantitative touchdown PCR (QPCR). PCR conditions were 35 cycles of denaturation at 94° C. for 10 s; annealing at 58-64° C. for 15 s; and extension at 72° C. for 20 s on a Corbett Rotorgene Real-Time PCR unit (Corbett, Australia). PCR was done using Taq DNA Polymerase (Invitrogen), and contained SYBR Green (SybrGreen1 10,000× concentrate, diluted 1:10,000; Molecular Probes, Eugene, Oreg.). Relative mRNA concentrations were calculated from the takeoff point of reactions using manufacturer's software, and were normalized to α-tubulin, β-actin, and glyceraldehyde-3-phosphate dehydrogenase (GDH). Melting curve analysis and agarose gel electrophoresis ensured production of single and corrected size products. The primers used were: […]
Comparative real time RT-PCR (or quantitative PCR, QPCR) was used to measure mRNA levels of the Aβ degrading enzymes neprilysin (Nep) and insulin degrading enzyme (IDE) in brain samples from vehicle and DSP4 treated mice (FIG. 4A). […] To assess the effects of dose, mouse neuronal N2A cells were incubated with increasing does of NA for 24 hr after which NEP activity was measured (FIG. 4D, data is mean±sd and is from n=3 samples). […]

Regarding `CCN(CCCl)Cc1ccccc1Br` [DSP4, N-(2-chloroethyl)-N-ethyl-2-bromobenzylamine], the “TH mRNA levels in the LC” value in test [1] (DSP4-treated rats, n=4) amounted to 57 % versus control levels. Also, in test [1] (not statistically significant, P>0.05), the “reduction in cortical TH mRNA levels” value amounted to 25%. The “reduction of LC TH mRNA” value in test [1] (versus control values, n=4) turned out to be 43%. The “loss of LC noradrenergic (TH positive) neurons” value with LC noradrenergic neurons is reported as 70%. The “reduction of NEP mRNA levels” value in the test with neprilysin (NEP) is listed as “approximately 20%”.
